Experiment [1] deals with T1, TPα^T337,S340A (Homo sapiens, UniProt P21731, S340A/T337A).
T1 construct: expressed in transfected cells
T1 sequence (P21731 1-343 T337A/S340A): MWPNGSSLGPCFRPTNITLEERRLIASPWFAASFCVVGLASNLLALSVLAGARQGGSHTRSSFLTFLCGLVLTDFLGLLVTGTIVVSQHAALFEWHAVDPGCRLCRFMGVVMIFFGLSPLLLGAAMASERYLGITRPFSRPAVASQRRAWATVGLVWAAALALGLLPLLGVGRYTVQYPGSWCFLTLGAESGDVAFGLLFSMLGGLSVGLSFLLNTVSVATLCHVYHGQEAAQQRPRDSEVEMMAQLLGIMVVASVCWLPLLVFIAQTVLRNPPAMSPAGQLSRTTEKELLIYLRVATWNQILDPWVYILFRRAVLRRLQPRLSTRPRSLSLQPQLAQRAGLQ
As to the kind of experiment: [3H]SQ29,548 radioligand binding, Scatchard analysis, HEK.TPα^T337,S340A. As to the method:
(§1) Cells were harvested by centrifugation at 500×g at 4 °C for 5 min and washed three times with ice-cold Ca^2+/Mg^2+-free phosphate-buffered saline (PBS). TP radioligand binding assays were carried out at 30 °C for 30 min in 100 μl reactions in the presence of 0–40 nM [^3H] […] Protein determinations were carried out using the Bradford assay.
(§2) Radioligand binding and Scatchard analysis data were analysed using GraphPad Prisim V4.0 programme (GraphPad Software Inc., San Diego CA, USA). Statistical analyses were carried out using the unpaired Student's t test using the Statworks Analysis Package. p-values ≤ 0.01 indicated statistically significant differences.

Experiment [2] concerns the target T2, TPα^S340A (Homo sapiens, UniProt P21731, S340A).
T2 construct: expressed in transfected cells
T2 sequence (P21731 1-343 S340A): T1 sequence (P21731 1-343 T337A/S340A) with A337T
As to the kind of experiment: [3H]SQ29,548 radioligand binding, Scatchard analysis, HEK.TPα^S340A. As to the method:
as §1, §2

The target in experiment [3] is T3, TP^S145A,Δ328 (Homo sapiens, UniProt P21731, S145A).
T3 construct: expressed in transfected cells
T3 sequence (P21731 1-328 S145A): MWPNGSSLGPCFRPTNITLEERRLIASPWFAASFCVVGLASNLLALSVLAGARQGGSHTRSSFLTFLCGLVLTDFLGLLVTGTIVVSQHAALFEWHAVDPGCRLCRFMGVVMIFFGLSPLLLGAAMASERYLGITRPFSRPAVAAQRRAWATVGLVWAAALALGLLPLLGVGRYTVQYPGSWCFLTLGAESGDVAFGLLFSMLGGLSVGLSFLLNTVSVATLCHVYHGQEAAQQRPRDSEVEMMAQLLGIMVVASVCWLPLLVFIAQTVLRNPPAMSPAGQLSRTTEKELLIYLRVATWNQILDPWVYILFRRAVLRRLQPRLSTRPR
As to the kind of experiment: [3H]SQ29,548 radioligand binding, Scatchard analysis, HEK.TP^S145A,Δ328. As to the method: as §1, §2

Experiment [4] concerns the target T4, TPα^S331A (Homo sapiens, UniProt P21731, S331A).
T4 construct: expressed in transfected cells
T4 sequence (P21731 1-343 S331A): T1 sequence (P21731 1-343 T337A/S340A) with S331A, A337T, A340S
Briefly: Agonist-mediated TP phosphorylation in whole cells, HEK.TPα^S331A. The class given is cell-based. The note with it: 1 μM U46619 10 min. As to the method:
(§3) Agonist-mediated TP phosphorylation in whole cells (1.8–2 × 10^6 cells/10 cm dish) was performed essentially as previously described. Briefly, cells were transiently co-transfected with pADVA (10 μg), pCMV:Gαq (25 μg) plus pcDNA:βArrestin2 (25 μg) approximately 48 h prior to labelling. Thereafter, cells were washed once in phosphate-free DMEM, 10% dialysed FBS and were metabolically labelled for 60 min in the same medium (2 ml/10 cm dish) containing 100 μCi/ml [^32P] orthophosphate (8000–9000 Ci/mmol) at 37 °C, 5% CO2. Where appropriate, the PKG kinase inhibitor KT 5823 (50 nM) or its vehicle was added during the labelling period. Thereafter, U46619 (1 μM) or an equivalent volume of vehicle (0.01% ethanol in HBS; 20 μl) were added and cells were incubated for 10 min at 37 °C, 5% CO2. Reactions were terminated by transferring the dishes to ice and aspirating the labelled medium and HA-epitope tagged TP receptors were processed and immunoprecipitated using the anti-HA 101R antibody as previously described. Electroblots were then exposed to Xomat XAR (Kodak) film to detect ^32P-labelled proteins. Thereafter, blots were subject to phosphorimage analysis, and the intensities of agonist-induced phosphorylation were expressed in arbitrary units relative to basal (vehicle-stimulated) levels. In parallel experiments, cells were incubated under identical conditions in the absence of [^32P] orthophosphate; HA-tagged TP receptors were immunoprecipitated from the same cell lines using the anti-HA 101R antibody and immunoblots were screened using the anti-HA 3F10 horseradish peroxidase-conjugated antibody.

Experiment [5] addresses T5, TPα (Homo sapiens, UniProt P21731).
T5 construct: expressed in transfected cells
T5 sequence (P21731 1-343): T1 sequence (P21731 1-343 T337A/S340A) with A337T, A340S
As to the kind of experiment: Agonist-mediated TP phosphorylation in whole cells, HEK.TPα. As to conditions: 1 μM U46619 10 min, [32P]orthophosphate labelling, PhosphorImage. The class given is cell-based. As to the method:
as §3

Positions count from the first letter of the chain named. Where “and” joins values, the source holds several entries; their conditions need not be identical. Identical values can stand only once.

As to `O=C(O)CCC/C=C\C[C@@H]1[C@H](CNNC(=O)Nc2ccccc2)[C@H]2CC[C@@H]1O2` [SQ29,548], the entries for the “Bmax (pmol/mg protein ± S.E.M.)” value in experiment [1], in experiment [2] and in experiment [3] were 4.9 ± 0.04 pmol/mg protein, 5.3 ± 0.04 pmol/mg protein and 3.83 ± 0.03 pmol/mg protein, respectively.
Turning to `CCCCC[C@H](O)/C=C/[C@@H]1[C@@H](C/C=C\CCCC(=O)O)[C@H]2CO[C@@H]1C2` [U46619], the “U46619-mediated TPα^S331A phosphorylation relative to basal (vehicle)” value in experiment [4] was found to be 2 fold. Besides, the “U46619-mediated TPα phosphorylation relative to basal (vehicle)” value in experiment [5] is 5–7 fold and 5 fold.

Values taken from publication PMC2680961, “Homologous desensitization of signalling by the alpha (α) isoform of the human thromboxane A2 receptor: A specific role for nitric oxide signalling” (Biochimica et Biophysica Acta, 2007).
